Consider seven molecules from patent US7767819B2, “Thiazolylimidazole derivatives and their use as inhibitors of microsomal triglyceride transfer protein” (Merck Patent GmbH, priority 2004, dated 2010).

Each structure is given as a SMILES string.

Assay [1] relates to apo B secretion in HepG2 cells. Put plainly: Secretion of apo B in the HepG2 human cell line (sandwich ELISA). Type of assay: cell-based. To be noted: 24 hours incubation, culture supernatant, ELISA for human apo B, read-out: IC50 (concentration that produces a 50% inhibition of apo B secretion in the HepG2 cells). The protocol:
Analysis of the Secretion of Apo B in the HepG2 Human Cell Line:
The activity of a compound according to the invention can be evaluated by measuring the inhibition of apo B secretion in HepG2 cells.
The HepG2 cells (ECACC-No. 85011430) are used as model in the study of the in vitro hepatic secretion of lipoproteins (Dixon J. and Ginsberg H., J. Lipid. Res., 1993, 34, 167-179).
The HepG2 cells are cultured in Dulbecco's modified Eagle's medium comprising 10% foetal calf serum (DMEM and FBS-Gibco) in 96-well plates under an atmosphere of 5% carbon dioxide for 24 hours (about 70% confluence).
The test compounds are dissolved at a concentration of 2 or 10 mM in dimethyl sulfoxide (DMSO). Serial dilutions (1:3.16) are made in DMSO and are:added (1:200—Robot Multimek Beckman) to the growth medium (200 μl) and then finally incubated for 24 hours in the various wells containing the HepG2 cells.
The 24-hour culture supernatant diluted to 1:5 (phosphate-buffered saline: PBS comprising 1% bovine serum albumin) is tested according to a sandwich-ELISA method specific for human apo B.
The results are expressed in terms of IC50, i.e. the concentration that produces a 50% inhibition of apo B secretion in the HepG2 cells.
Background: In an ELISA, binding on a coated surface is turned into a signal by an enzyme label.

Assay [2] addresses T1, microsomal triglyceride transfer protein (MTP) (Mesocricetus auratus, UniProt P55158).
T1 construct: The supernatant comprising the soluble MTP is dialysed against Tris/HCl 150 mM; from tissue; host or cells: golden hamster liver microsomes, deoxycholate-solubilised supernatant
T1 sequence (P55158 19-895): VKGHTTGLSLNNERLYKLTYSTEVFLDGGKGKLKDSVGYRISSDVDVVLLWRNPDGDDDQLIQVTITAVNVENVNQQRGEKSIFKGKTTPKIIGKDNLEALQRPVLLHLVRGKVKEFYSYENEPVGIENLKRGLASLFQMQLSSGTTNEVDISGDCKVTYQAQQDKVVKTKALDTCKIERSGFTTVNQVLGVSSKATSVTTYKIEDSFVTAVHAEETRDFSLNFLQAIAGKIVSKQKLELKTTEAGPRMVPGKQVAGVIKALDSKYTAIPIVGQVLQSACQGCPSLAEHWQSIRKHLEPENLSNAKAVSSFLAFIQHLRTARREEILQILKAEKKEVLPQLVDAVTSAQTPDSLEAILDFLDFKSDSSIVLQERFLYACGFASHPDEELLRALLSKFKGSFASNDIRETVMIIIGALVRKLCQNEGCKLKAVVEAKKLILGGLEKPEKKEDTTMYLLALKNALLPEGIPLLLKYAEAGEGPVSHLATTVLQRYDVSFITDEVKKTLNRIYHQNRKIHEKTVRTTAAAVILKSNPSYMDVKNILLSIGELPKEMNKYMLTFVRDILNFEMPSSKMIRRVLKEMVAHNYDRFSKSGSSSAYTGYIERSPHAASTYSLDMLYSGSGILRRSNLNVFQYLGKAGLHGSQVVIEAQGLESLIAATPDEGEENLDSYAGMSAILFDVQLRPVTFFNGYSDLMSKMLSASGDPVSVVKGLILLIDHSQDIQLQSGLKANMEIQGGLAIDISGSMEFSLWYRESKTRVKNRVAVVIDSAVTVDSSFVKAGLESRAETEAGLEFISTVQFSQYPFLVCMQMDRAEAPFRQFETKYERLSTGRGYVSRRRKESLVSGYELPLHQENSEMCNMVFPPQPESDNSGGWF
Put plainly: Inhibition of MTP activity (transfer of [3H]-triolein from donor liposomes to biotinylated LDL, SPA). It is filed as biochemical. To be noted: MTP from golden hamster liver microsomes; incubation 18-24 hours at 37° C.; read-out: IC50 (concentration that allows a 50% inhibition of MTP). As to the method: Analysis of the Inhibition of MTP Activity
The inhibition of the activity of microsomal triglyceride transfer protein (MTP) was tested by using the following operating protocol.
The inhibition of MTP activity with a compound can be quantified by observing the inhibition of the transfer of a labelled triglyceride, from a donor particle to an acceptor particle, in the presence of MTP. The procedure for the preparation of MTP is based on the method by Wetterau and Zilversmit (Biochem. Biophys. Acta (1986) 875, 610). A few grams of golden hamster liver are taken and then rinsed several times in a 250 mM sucrose solution at 0° C. All the following steps proceed at +4° C. A homogenate at a concentration of 50% in 250 mM sucrose is prepared using a Teflon mill and then centrifuged for 10 minutes at 10 000×g at +4° C. The supernatant is then centrifuged at 105 000×g for 75 minutes at +4° C. The supernatant is discarded and the microsomal pellet is taken up in 3 ml (per g of starting liver) of Tris/HCl 150 mM pH 8.0. 1 ml aliquot fractions are stored at −80° C. until the time of use.
After thawing a fraction of microsomes (1 ml), 12 ml of refrigerated Tris/HCl 50 mM, KCl 50 mM, MgCl2 5 mM pH 7.4 buffers and 1.2 ml of deoxycholate (0.54% in water) are added. After incubation for 30 minutes at +4° C. with gentle agitation, the suspension is centrifuged at 105 000×g for 75 minutes. The supernatant comprising the soluble MTP is dialysed against Tris/HCl 150 mM, NaCl 40 mM, EDTA 1 mM, 0.02% sodium azide pH 7.4 buffer (5 times one litre over 2-3 days). The MTP is stored at +4° C., is stable for at least 30 days and is used in unmodified form in the test.
The donor particles (liposomes) are prepared from 208 μl of L-phosphatidylcholine at a concentration of 10 mg/ml in chloroform, and 480 μl of [3H]-triolein at a concentration of 0.5 mCi/ml in toluene. After stirring, the solution is evaporated under nitrogen, taken up in 6 ml of Tris/HCl 50 mM, KCl 50 mM, MgCl2 5 mM pH 7.4 buffer and incubated in an ultrasound bath for 30 minutes at room temperature. The liposomes are stored at +4° C. and sonicated again for 10 minutes before each use.
The acceptor particles are biotinylated low density lipoproteins (LDL-biot). These particles are supplied by the company Amersham.
The reaction mixture is prepared in untreated ½ well white plates (Corning Costar) by addition, in the following order, of: 5 μl of HEPES 50 mM, NaCl-150 mM, BSA 0.1% (w/v), 0.05% sodium azide (w/v), pH 7.4 buffer; 5 μl of liposomes; 5 μl of LDL-biot; 5 μl of test products in DMSO; 5 μl of MTP. After incubation for 18-24 hours at 37° C., the reaction is stopped by adding 100 μl of Amersham SPA (scintillation proximity assay) beads coupled to streptavidin, and the radioactivity is counted using a Top Count (Packard) machine at least one hour later. The inhibition of the transfer of the triglycerides with a compound is reflected by a reduction in the transferred radioactivity.
The results are expressed in terms of the IC50, i.e. the concentration that allows a 50% inhibition of MTP.

For `CCn1c(-c2csc(C3CCN(C(=O)c4cccc(C)c4-c4ccc(OC(F)(F)F)cc4)CC3)n2)nc(-c2ccccc2)c1C` [Example 1, {4-[4-(1-Ethyl-5-methyl-4-phenyl-1H-imidazol-2-yl)thiazol-2-yl]piperid-1-yl}(6-methyl-4′-trifluoromethoxybiphenyl-2-yl)methanone], the results for the IC50 in assay [1] and in assay [2] were 369 nM and 320 nM, respectively.
For the molecule `Cc1c(-c2ccccc2)nc(-c2csc(C3CCN(C(=O)c4ccccc4-c4ccc(C(F)(F)F)cc4)CC3)n2)n1C` [Example 2, {4-[4-(1,5-dimethyl-4-phenyl-1H-imidazol-2-yl)thiazol-2-yl]piperid-1-yl}(4′-trifluoromethylbiphenyl-2-yl)methanone], the IC50 in assay [1] was determined as 616 nM; in assay [2] it was 300 nM.
The corresponding values for `CCn1c(-c2csc(C3CCN(C(=O)c4ccccc4-c4ccc(C(F)(F)F)cc4)CC3)n2)nc(-c2ccccc2)c1C` [Example 3, {4-[4-(1-ethyl-5-methyl-4-phenyl-1H-imidazol-2-yl)thiazol-2-yl]piperid-1-yl}(4′-trifluoromethylbiphenyl-2-yl)methanone] are 390 nM and 270 nM.
For `CCn1c(-c2csc(C3CCN(C(=O)c4ccccc4-c4ccc(C(F)(F)F)cc4)CC3)n2)nc(-c2cccnc2)c1C` [Example 4, {4-[4-(1-ethyl-5-methyl-4-(pyrid-3-yl)-1H-imidazol-2-yl)thiazol-2-yl]-piperid-1-yl}(4′-trifluoromethylbiphenyl-2-yl)methanone], in that order: 1570 nM and 816 nM.
Turning to `CCn1c(-c2csc(C3CCN(C(=O)c4ccccc4-c4ccc(C(F)(F)F)cc4)CC3)n2)nc(-c2ccccn2)c1C` [Example 5, {4-[4-(1-ethyl-5-methyl-4-(pyrid-2-yl)-1H-imidazol-2-yl)thiazol-2-yl]-piperid-1-yl}(4′-trifluoromethylbiphenyl-2-yl)methanone], the IC50 in assay [1] came out at 2620 nM; in assay [2], 2540 nM.
Turning to `CCn1c(-c2csc(C3CCN(C(=O)c4cccc(C)c4-c4ccc(OC(F)(F)F)cc4)CC3)n2)nc(-c2ccccn2)c1C` [Example 6, {4-[4-(1-ethyl-5-methyl-4-(pyrid-2-yl)-1H-imidazol-2-yl)thiazol-2-yl]-piperid-1-yl}(6-methyl-4′-trifluoromethoxybiphenyl-2-yl)methanone], the values for the IC50 in assay [1] and in assay [2] were 2300 nM and 1830 nM, respectively.
As to `CCn1c(-c2csc(C3CCCN(C(=O)c4ccccc4-c4ccc(C(F)(F)F)cc4)C3)n2)nc(-c2ccccc2)c1C` (stereo not shown) [Example 7, {3-[4-(1-ethyl-5-methyl-4-phenyl-1H-imidazol-2-yl)thiazol-2-yl]piperid-1-yl}(4′-trifluoromethylbiphenyl-2-yl)methanone], the IC50 in assay [1] amounted to 2090 nM.
